Test results taken from patent publication US20230365592A1 (Agios Pharmaceuticals, Inc., priority 2022, published 2023).
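Further: after compound treatment, cells received sepiapterin plus isotope-labelled Phenylalanine for 4 hours, then labelled Tyrosine in the medium was quantified, 10-point 2-fold dilution series run in duplicate.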

These molecules were tested against T1, human PAH with the R408W mutation (Homo sapiens, UniProt P00439, R408W) (assay: Cell Based Phenylalanine Flux Assay). Settings: A375 cells expressing R408W PAH; 24 hrs with compound, then 20 µM sepiapterin and 800 µM 13C9,15N-Phenylalanine for 4 hours; 13C-Tyrosine by LC-MS; average where tested multiple times; read-out: AC50.
T1 construct: expressed in transfected cells
T1 sequence (P00439 1-452 R408W): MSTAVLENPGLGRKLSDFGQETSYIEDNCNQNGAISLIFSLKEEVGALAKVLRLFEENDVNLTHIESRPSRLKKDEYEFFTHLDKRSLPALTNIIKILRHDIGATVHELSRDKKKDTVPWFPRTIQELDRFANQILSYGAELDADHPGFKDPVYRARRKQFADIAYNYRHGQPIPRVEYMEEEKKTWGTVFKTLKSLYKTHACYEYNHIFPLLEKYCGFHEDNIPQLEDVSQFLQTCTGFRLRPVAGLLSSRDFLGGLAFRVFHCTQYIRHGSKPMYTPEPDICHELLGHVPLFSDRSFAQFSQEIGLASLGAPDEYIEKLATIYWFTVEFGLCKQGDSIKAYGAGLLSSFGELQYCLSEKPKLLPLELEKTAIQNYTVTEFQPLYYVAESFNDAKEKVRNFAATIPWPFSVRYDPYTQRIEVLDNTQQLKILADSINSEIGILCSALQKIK
For `Cc1ccc2cc(C3c4nc[nH]c4CCN3C(=O)c3ocnc3C(F)F)nn2c1` (stereo not drawn), the AC50 was 1 to 5 µM.

Same assay, conditions: A375 cells expressing human PAH R408W; 24 hrs compound incubation; 13C-Tyrosine by LC-MS; average where tested multiple times; read-out: AC50
For `O=C(C1CCC1)N1CCc2[nH]cnc2[C@H]1c1cc2c(F)cccn2n1` [Example 2080, (S)-cyclobutyl(4-(4-fluoropyrazolo[1,5-a]pyridin-2-yl)-1,4,6,7-tetrahydro-5H-imidazo[4,5-c]pyridin-5-yl)methanone], the AC50 was less than 0.5 µM.
`FC(F)(F)c1nnc(N2CCc3[nH]cnc3[C@@H]2c2cc3c(C(F)(F)F)cccn3n2)o1` [Example 1820, (R)-2-(trifluoromethyl)-5-(4-(4-(trifluoromethyl)pyrazolo[1,5-a]pyridin-2-yl)-6,7-dihydro-1H-imidazo[4,5-c]pyridin-5(4H)-yl)-1,3,4-oxadiazole] showed an AC50 greater than 5 µM.
In the case of `COc1cccn2nc([C@H]3c4nc[nH]c4CCN3c3ccc(C(F)(F)F)cn3)cc12` [Example 2246, (R)-4-(4-methoxypyrazolo[1,5-a]pyridin-2-yl)-5-(5-(trifluoromethyl)pyridin-2-yl)-4,5,6,7-tetrahydro-1H-imidazo[4,5-c]pyridine], the AC50 is reported as greater than 5 µM.
Work on `O=C(c1ocnc1C1CC1)N1CCc2[nH]cnc2[C@@H]1c1cc2c(Cl)cccn2n1` [Example 2041, (R)-(4-(4-chloropyrazolo[1,5-a]pyridin-2-yl)-1,4,6,7-tetrahydro-5H-imidazo[4,5-c]pyridin-5-yl)(4-cyclopropyloxazol-5-yl)methanone] yielded an AC50 of 1 to 5 µM.

Same assay, conditions: A375 cells expressing human R408W PAH; 24 hrs compound incubation; 13C-Tyrosine by LC-MS; average where tested multiple times; read-out: AC50
Molecule `Cc1nc(C(C)(C)F)oc1C(=O)N1CCc2[nH]cnc2[C@H]1c1cc2c(C(F)(F)F)cccn2n1` [Example 1262, (S)-(2-(2-fluoropropan-2-yl)-4-methyloxazol-5-yl)(4-(4-(trifluoromethyl)pyrazolo[1,5-a]pyridin-2-yl)-6,7-dihydro-1H-imidazo[4,5-c]pyridin-5(4H)-yl)methanone] has an AC50 of less than 0.5 µM.
`Cn1ccc(-c2nnc(C(=O)N3CCc4[nH]cnc4[C@@H]3c3cc4cccc(C(F)F)n4n3)o2)n1` [Example 1439, (R)-(4-(7-(difluoromethyl)pyrazolo[1,5-a]pyridin-2-yl)-6,7-dihydro-1H-imidazo[4,5-c]pyridin-5(4H)-yl)(5-(1-methyl-1H-pyrazol-3-yl)-1,3,4-oxadiazol-2-yl)methanone] showed an AC50 greater than 5 µM.
With `O=C(c1nnc(-c2cnccn2)o1)N1CCc2[nH]cnc2[C@@H]1c1cc2ccccn2n1` [Example 1363, (R)-(5-(pyrazin-2-yl)-1,3,4-oxadiazol-2-yl)(4-(pyrazolo[1,5-a]pyridin-2-yl)-6,7-dihydro-1H-imidazo[4,5-c]pyridin-5(4H)-yl)methanone] the AC50 was greater than 5 µM.
`O=C(c1ocnc1C1CC1)N1CCc2[nH]cnc2[C@@H]1c1cc2ccccn2n1` [Example 619, (R)-(4-cyclopropyloxazol-5-yl)(4-(pyrazolo[1,5-a]pyridin-2-yl)-6,7-dihydro-1H-imidazo[4,5-c]pyridin-5(4H)-yl)methanone] showed an AC50 of 1 to 5 µM.
Molecule `Cc1ncccc1-c1nnc(C(=O)N2CCc3[nH]cnc3[C@H]2c2cc3c(F)cccn3n2)o1` [Example 1328, (S)-(4-(4-fluoropyrazolo[1,5-a]pyridin-2-yl)-6,7-dihydro-1H-imidazo[4,5-c]pyridin-5(4H)-yl)(5-(2-methylpyridin-3-yl)-1,3,4-oxadiazol-2-yl)methanone] has an AC50 of less than 0.5 µM.
Molecule `O=C(c1nnc(-c2ncccc2F)o1)N1CCc2[nH]cnc2[C@@H]1c1cc2c(OC(F)(F)F)cccn2n1` [Example 1678, (R)-(5-(3-fluoropyridin-2-yl)-1,3,4-oxadiazol-2-yl)(4-(4-(trifluoromethoxy)pyrazolo[1,5-a]pyridin-2-yl)-6,7-dihydro-1H-imidazo[4,5-c]pyridin-5(4H)-yl)methanone] has an AC50 greater than 5 µM.
For `O=C(c1nnc(-c2ccn(C(F)F)n2)o1)N1CCc2[nH]cnc2[C@H]1c1cc2cccc(C(F)F)n2n1` [Example 1442, (S)-(5-(1-(difluoromethyl)-1H-pyrazol-3-yl)-1,3,4-oxadiazol-2-yl)(4-(7-(difluoromethyl)pyrazolo[1,5-a]pyridin-2-yl)-6,7-dihydro-1H-imidazo[4,5-c]pyridin-5(4H)-yl)methanone], the AC50 was less than 0.5 µM.
